Measured values as given in US20260176320A1, “MODULATORS OF G-PROTEIN COUPLED RECEPTORS” (priority 2018, published 2026).
Numbered stars: 1 amine (or outer) side, 2 acyl side, 3 side chain; on linkers, the order of the positions; unused ones are H or OH. Square brackets hold non-standard residues; d marks the D form. Side chains are listed from the residue outwards. Peptide text beside a SMILES is read from it. * marks the point of attachment. γGlu = O=C(O)[C@H](CCC(=O)[*:2])N[*:1]; Palmitoyl = CCCCCCCCCCCCCCCC(=O)*; X6 = O=C(CSCC(=O)*)NCCN1CCCCC1=O; Aib = CC(C)(N)C(=O)O

Assays:
Assay type in all cases: cell-based
GLP-1R [1] = molecular target: T1, GLP-1R (Homo sapiens, UniProt P43220); assay: HitHunter cAMP assay (GLP-1R); settings: Table 3A, cAMP; for Emax: read-out: (Emax) GLP-1R; for EC50: read-out: EC50 GLP-1R/nM
T1 sequence (P43220 24-463): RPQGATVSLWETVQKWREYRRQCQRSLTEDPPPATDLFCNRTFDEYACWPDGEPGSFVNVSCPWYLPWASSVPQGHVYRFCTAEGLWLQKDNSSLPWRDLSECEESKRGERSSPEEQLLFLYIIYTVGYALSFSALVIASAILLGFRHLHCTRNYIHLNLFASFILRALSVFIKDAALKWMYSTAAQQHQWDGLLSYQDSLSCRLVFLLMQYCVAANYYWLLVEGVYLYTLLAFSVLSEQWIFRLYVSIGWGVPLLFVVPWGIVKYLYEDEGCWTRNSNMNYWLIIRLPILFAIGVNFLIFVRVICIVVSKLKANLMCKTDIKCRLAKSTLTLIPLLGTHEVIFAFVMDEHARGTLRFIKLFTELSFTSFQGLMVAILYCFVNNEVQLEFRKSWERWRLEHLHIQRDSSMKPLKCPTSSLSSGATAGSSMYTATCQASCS
Method in brief: (§1)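 cAMP, luminescence read: agonist 22-pt 2× dilution in DMSO, duplicate, 30 min RT on 10,000 cells/well in 1×HBSS/10 mM HEPES/625 μM IBMX/0.2% BSA; anti-cAMP reagent 1 h RT dark, then O/N RT dark before read.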

GIP-R = molecular target: T2, GIP-R (Homo sapiens, UniProt P48546); assay: HitHunter cAMP assay (GIP-R); settings: Table 3A, cAMP; for Emax: read-out: (Emax) GIP-R; for EC50: read-out: EC50 GIP-R/nM
T2 sequence (P48546 22-466): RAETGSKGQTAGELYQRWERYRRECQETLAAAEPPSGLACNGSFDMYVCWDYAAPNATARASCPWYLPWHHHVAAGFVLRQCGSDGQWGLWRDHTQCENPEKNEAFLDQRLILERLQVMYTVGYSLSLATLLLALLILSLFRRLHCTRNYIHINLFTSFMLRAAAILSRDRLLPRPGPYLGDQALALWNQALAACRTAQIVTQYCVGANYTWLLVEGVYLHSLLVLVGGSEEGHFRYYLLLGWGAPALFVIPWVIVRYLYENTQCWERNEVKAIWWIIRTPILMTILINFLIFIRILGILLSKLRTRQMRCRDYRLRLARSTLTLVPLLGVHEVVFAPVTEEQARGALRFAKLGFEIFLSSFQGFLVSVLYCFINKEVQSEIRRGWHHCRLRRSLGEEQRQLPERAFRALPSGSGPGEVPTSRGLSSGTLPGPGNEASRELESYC
Method in brief: as §1

GLP-1R [2] = molecular target: T1, GLP-1R; assay: PathHunter β-arrestin assay; settings: PathHunter β-arrestin assay; read-out: β-arrestin activity EC50
Method in brief: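 Luminescence read-out of β-arrestin recruitment (enzyme-fragment complementation detection, 3 h at room temperature in the dark) after 90 min agonist stimulation at 37 °C. Agonists tested as 22-point 2× serial dilutions in duplicate, in medium containing 0.2% BSA.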

SMILES | Emax (GLP-1R [1]) | EC50 (GLP-1R [1]) | Emax (GIP-R) | EC50 (GIP-R) | EC50 (GLP-1R [2])
CCCCCCCCCCCCCCCC(=O)N[C@@H](CCC(=O)NCCCC[C@H](NC(=O)[C@H](CO)NC(=O)[C@@H]1CCCN1C(=O)[C@@H]1CCCN1C(=O)[C@@H]1CCCN1C(=O)[C@H](C)NC(=O)CNC(=O)[C@H](CO)NC(=O)[C@H](CO)NC(=O)[C@@H]1CCCN1C(=O)CNC(=O)CNC(=O)[C@H](C)NC(=O)[C@H](CC(C)C)NC(=O)[C@H](CC(C)C)NC(=O)[C@H](Cc1c[nH]c2ccccc12)NC(=O)[C@H](CC(N)=O)NC(=O)[C@@H](NC(=O)[C@H](Cc1ccccc1)NC(=O)[C@H](CCC(=O)O)NC(=O)C(C)(C)NC(=O)[C@H](C)NC(=O)[C@H](C)NC(=O)[C@H](CCC(N)=O)NC(=O)[C@H](CCCCN)NC(=O)[C@H](CC(=O)O)NC(=O)[C@H](CC(C)C)NC(=O)[C@H](Cc1ccc(O)cc1)NC(=O)[C@@H](NC(=O)[C@H](CO)NC(=O)[C@H](Cc1ccc(O)cc1)NC(=O)[C@H](CC(=O)O)NC(=O)[C@H](CO)NC(=O)[C@@H](NC(=O)[C@H](Cc1ccccc1)NC(=O)[C@@H](NC(=O)CNC(=O)[C@H](CCC(=O)O)NC(=O)[C@H](C)NC(=O)CN1CCCCC1=O)[C@@H](C)O)[C@@H](C)O)[C@@H](C)CC)C(C)C)C(N)=O)C(=O)O [Compound 211] | 91% | < 0.1 nM | 50% | 0.1 to 1 nM | 10 to 1000 nM
CCCCCCCCCCCCCCCC(=O)N[C@@H](CCC(=O)NCCCC[C@H](NC(=O)[C@H](CO)NC(=O)[C@@H]1CCCN1C(=O)[C@@H]1CCCN1C(=O)[C@@H]1CCCN1C(=O)[C@H](C)NC(=O)CNC(=O)[C@H](CO)NC(=O)[C@H](CO)NC(=O)[C@@H]1CCCN1C(=O)CNC(=O)CNC(=O)[C@H](C)NC(=O)[C@H](CC(C)C)NC(=O)[C@H](CC(C)C)NC(=O)[C@H](Cc1c[nH]c2ccccc12)NC(=O)[C@H](CC(N)=O)NC(=O)[C@@H](NC(=O)[C@H](Cc1ccccc1)NC(=O)[C@H](CCC(=O)O)NC(=O)C(C)(C)NC(=O)[C@H](C)NC(=O)[C@H](C)NC(=O)[C@H](CCC(N)=O)NC(=O)[C@H](CCCCN)NC(=O)[C@H](CC(=O)O)NC(=O)[C@H](CC(C)C)NC(=O)[C@H](Cc1ccc(O)cc1)NC(=O)[C@@H](NC(=O)[C@H](CO)NC(=O)[C@H](Cc1ccc(O)cc1)NC(=O)[C@H](CC(=O)O)NC(=O)[C@H](CO)NC(=O)[C@@H](NC(=O)[C@H](Cc1ccccc1)NC(=O)[C@@H](NC(=O)CNC(=O)[C@H](CCC(=O)O)NC(=O)[C@H](C)NC(=O)CCN1CCCCC1=O)[C@@H](C)O)[C@@H](C)O)[C@@H](C)CC)C(C)C)C(N)=O)C(=O)O [Compound 212] | 90% | < 0.1 nM | 50% | 1 to 10 nM | 10 to 1000 nM
CCCCCCCCCCCCCCCC(=O)N[C@@H](CCC(=O)NCCCC[C@H](NC(=O)[C@H](CO)NC(=O)[C@@H]1CCCN1C(=O)[C@@H]1CCCN1C(=O)[C@@H]1CCCN1C(=O)[C@H](C)NC(=O)CNC(=O)[C@H](CO)NC(=O)[C@H](CO)NC(=O)[C@@H]1CCCN1C(=O)CNC(=O)CNC(=O)[C@H](C)NC(=O)[C@H](CC(C)C)NC(=O)[C@H](CC(C)C)NC(=O)[C@H](Cc1c[nH]c2ccccc12)NC(=O)[C@H](CC(N)=O)NC(=O)[C@@H](NC(=O)[C@H](Cc1ccccc1)NC(=O)[C@H](CCC(=O)O)NC(=O)C(C)(C)NC(=O)[C@H](C)NC(=O)[C@H](C)NC(=O)[C@H](CCC(N)=O)NC(=O)[C@H](CCCCN)NC(=O)[C@H](CC(=O)O)NC(=O)[C@H](CC(C)C)NC(=O)[C@H](Cc1ccc(O)cc1)NC(=O)[C@@H](NC(=O)[C@H](CO)NC(=O)[C@H](Cc1ccc(O)cc1)NC(=O)[C@H](CC(=O)O)NC(=O)[C@H](CO)NC(=O)[C@@H](NC(=O)[C@H](Cc1ccccc1)NC(=O)[C@@H](NC(=O)CNC(=O)[C@H](CCC(=O)O)NC(=O)[C@@H](C)NC(=O)CN1CCCCC1=O)[C@@H](C)O)[C@@H](C)O)[C@@H](C)CC)C(C)C)C(N)=O)C(=O)O [Compound 213] | 90% | < 0.1 nM | 59% | 0.1 to 1 nM | 10 to 1000 nM
CCCCCCCCCCCCCCCC(=O)N[C@@H](CCC(=O)NCCCC[C@H](NC(=O)[C@H](CO)NC(=O)[C@@H]1CCCN1C(=O)[C@@H]1CCCN1C(=O)[C@@H]1CCCN1C(=O)[C@H](C)NC(=O)CNC(=O)[C@H](CO)NC(=O)[C@H](CO)NC(=O)[C@@H]1CCCN1C(=O)CNC(=O)CNC(=O)[C@H](C)NC(=O)[C@H](CC(C)C)NC(=O)[C@H](CC(C)C)NC(=O)[C@H](Cc1c[nH]c2ccccc12)NC(=O)[C@H](CC(N)=O)NC(=O)[C@@H](NC(=O)[C@H](Cc1ccccc1)NC(=O)[C@H](CCC(=O)O)NC(=O)C(C)(C)NC(=O)[C@H](C)NC(=O)[C@H](C)NC(=O)[C@H](CCC(N)=O)NC(=O)[C@H](CCCCN)NC(=O)[C@H](CC(=O)O)NC(=O)[C@H](CC(C)C)NC(=O)[C@H](Cc1ccc(O)cc1)NC(=O)[C@@H](NC(=O)[C@H](CO)NC(=O)[C@H](Cc1ccc(O)cc1)NC(=O)[C@H](CC(=O)O)NC(=O)[C@H](CO)NC(=O)[C@@H](NC(=O)[C@H](Cc1ccccc1)NC(=O)[C@@H](NC(=O)CNC(=O)[C@H](CCC(=O)O)NC(=O)[C@@H](C)NC(=O)CCN1CCCCC1=O)[C@@H](C)O)[C@@H](C)O)[C@@H](C)CC)C(C)C)C(N)=O)C(=O)O [Compound 214] | 95% | < 0.1 nM | 45% | 1 to 10 nM | 10 to 1000 nM
CCCCCCCCCCCCCCCC(=O)N[C@@H](CCC(=O)NCCCC[C@H](NC(=O)[C@H](CO)NC(=O)[C@@H]1CCCN1C(=O)[C@@H]1CCCN1C(=O)[C@@H]1CCCN1C(=O)[C@H](C)NC(=O)CNC(=O)[C@H](CO)NC(=O)[C@H](CO)NC(=O)[C@@H]1CCCN1C(=O)CNC(=O)CNC(=O)[C@H](C)NC(=O)[C@H](CC(C)C)NC(=O)[C@H](CC(C)C)NC(=O)[C@H](Cc1c[nH]c2ccccc12)NC(=O)[C@H](CC(N)=O)NC(=O)[C@@H](NC(=O)[C@H](Cc1ccccc1)NC(=O)[C@H](CCC(=O)O)NC(=O)C(C)(C)NC(=O)[C@H](C)NC(=O)[C@H](C)NC(=O)[C@H](CCC(N)=O)NC(=O)[C@H](CCCCN)NC(=O)[C@H](CC(=O)O)NC(=O)[C@H](CC(C)C)NC(=O)[C@H](Cc1ccc(O)cc1)NC(=O)[C@@H](NC(=O)[C@H](CO)NC(=O)[C@H](Cc1ccc(O)cc1)NC(=O)[C@H](CC(=O)O)NC(=O)[C@H](CO)NC(=O)[C@@H](NC(=O)[C@H](Cc1ccccc1)NC(=O)[C@@H](NC(=O)CNC(=O)[C@H](CC(=O)O)NC(=O)CSCC(=O)NCCN1CCCCC1=O)[C@@H](C)O)[C@@H](C)O)[C@@H](C)CC)C(C)C)C(N)=O)C(=O)O [Compound 217] (X6-DGTFTSDYSIYLDKQAA[Aib]EFVNWLLAGGPSSGAPPPSK([γGlu-Palmitoyl])-NH2) | 97% | < 0.1 nM | 58% | 1 to 10 nM | > 1000 nM
CCCCCCCCCCCCCCCC(=O)N[C@@H](CCC(=O)NCCCC[C@H](NC(=O)[C@H](CO)NC(=O)[C@@H]1CCCN1C(=O)[C@@H]1CCCN1C(=O)[C@@H]1CCCN1C(=O)[C@H](C)NC(=O)CNC(=O)[C@H](CO)NC(=O)[C@H](CO)NC(=O)[C@@H]1CCCN1C(=O)CNC(=O)CNC(=O)[C@H](C)NC(=O)[C@H](CC(C)C)NC(=O)[C@H](CC(C)C)NC(=O)[C@H](Cc1c[nH]c2ccccc12)NC(=O)[C@H](CC(N)=O)NC(=O)[C@@H](NC(=O)[C@H](Cc1ccccc1)NC(=O)[C@H](CCC(=O)O)NC(=O)C(C)(C)NC(=O)[C@H](C)NC(=O)[C@H](C)NC(=O)[C@H](CCC(N)=O)NC(=O)[C@H](CCCCN)NC(=O)[C@H](CC(=O)O)NC(=O)[C@H](CC(C)C)NC(=O)[C@H](Cc1ccc(O)cc1)NC(=O)[C@@H](NC(=O)[C@H](CO)NC(=O)[C@H](Cc1ccc(O)cc1)NC(=O)[C@H](CC(=O)O)NC(=O)[C@H](CO)NC(=O)[C@@H](NC(=O)[C@H](Cc1ccccc1)NC(=O)[C@@H](NC(=O)CNC(=O)[C@@H](CC(=O)O)NC(=O)CSCC(=O)NCCN1CCCCC1=O)[C@@H](C)O)[C@@H](C)O)[C@@H](C)CC)C(C)C)C(N)=O)C(=O)O [Compound 218] (X6-[dD]GTFTSDYSIYLDKQAA[Aib]EFVNWLLAGGPSSGAPPPSK([γGlu-Palmitoyl])-NH2) | 96% | 0.1 to 1 nM | 19 to 23% | – | > 1000 nM
